Source: US20060142247A1, “Tricyclic heterocycles” (priority 2004, published 2006)

Target: T1, Aurora A (Homo sapiens, UniProt O14965)
T1 construct: C-terminally Histidine4 (His4)-tagged Aurora A full-length protein; His4 (C)
T1 sequence (O14965 1-403): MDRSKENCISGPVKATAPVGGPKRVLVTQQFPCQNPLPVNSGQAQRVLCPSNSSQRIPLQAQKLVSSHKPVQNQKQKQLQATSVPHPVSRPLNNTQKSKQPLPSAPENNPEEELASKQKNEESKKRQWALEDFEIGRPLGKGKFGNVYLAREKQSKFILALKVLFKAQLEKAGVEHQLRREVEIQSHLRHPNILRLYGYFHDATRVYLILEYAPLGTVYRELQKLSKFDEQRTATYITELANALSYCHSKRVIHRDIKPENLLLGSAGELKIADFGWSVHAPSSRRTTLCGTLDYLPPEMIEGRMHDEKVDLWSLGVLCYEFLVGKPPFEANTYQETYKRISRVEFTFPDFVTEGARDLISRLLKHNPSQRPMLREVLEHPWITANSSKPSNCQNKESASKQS
Assay: IC50 determination for inhibitors of Aurora A (96 MTP-ELISA)
Type: biochemical
Conditions: His4-tagged full-length Aurora A 250 ng/ml, PKB-GSK2 200 nM, ATP 4 μM, 90 min room temperature, read-out: IC50 Aurora A kinase inhibition
Protocol: Aurora A is a serine threonine kinase involved in spindle assembly and chromosome segregation. The assay is a typically ELISA-type assay where biotinylated substrate (PKB-GSK2) is phosphorylated. Phosphorylation is detected by peroxidase (POD) labelled polyclonal antibody (PAK<M-Ig>S-IgG-POD) and phosphopeptide monoclonal antibody (Mab) (MAK<P-GSK>M-27E5-IgG). The assay is validated for IC50-determination.
Assay plates: 96-well polystyrene plates, streptavidin-coated,
Samples: 10 mM in dimethylsulfoxide (DMSO)
Aurora A-His-4: C-terminally Histidine4 (His4)-tagged Aurora A full-length protein, stock solution 0.7 mg/ml, final conc.: 250 ng/ml
PKB-GSK2: biotinylated peptide derived from human GSK3-alpha sequence (Biotin-SGRARTSSFAEPGG-CONH2), stock solution 600 μM, final conc.: 200 nM
PAK<M-Ig>S-IgG-POD: Anti-mouse IgG, horse radish peroxidase(HRP)-linked Antibody, diluted in 3% BSA/PBS-T (1:10000), (Cell Signaling, Cat. No.: 7076)
MAK<P-GSK>M-27E5-IgG: Phospho-GSK-3-alpha (Ser 21) (27E5) Monoclonal Antibody, stock solution 1.85 mg/ml, diluted in 3% BSA/PBS-T (1:6000), final conc.: 0.31 μg/ml, (Cell Signaling, Cat. No.: 9337B)
ATP: Adenosine-5′-triphosphate 1 mM, diluted in kinase buffer, (Roche Diagnostics GmbH, Cat. No.: 127531-001,), final conc.: 4 μM
TRIS: 2-Amino-2-hydroxymethyl-1,3-propoanediol (“tris-(hydroxymethyl)-aminomethane”) (MERCK, Cat. No.: 108382.2500)
BSA: Bovine Serum Albumin Fraction V, fatty acid free (Roche Diagnostics GmbH, Cat. No. 9100221)
EDTA Titriplex III (di-Sodium-EDTA di-Hydrate), 120 mM, (MERCK, Cat. No.: 1.08418.1000)
ABTS buffer: ABTS (2,2′-azino-bis(3-ethylbenzthiazoline-6-sulfonic acid)) 16.7 mg/ml (Roche Diagnostics GmbH, Cat. No.: 1204530) • ABTS tablets: dissolve one ABTS tablet in 50 ml of working solution (ABTS buffer) (Roche Diagnostics GmbH, Cat. No.: 1112422 ) • Tween 20: Polysorbat 20 (Roche Diagnostics GmbH, Cat. No.: 10006394-001) • DTT: 1,4-Dithiothreitol (Roche Diagnostics GmbH, Cat. No.: 197777) • MgCl2×6H2O MERCK, Cat. No.: 105833.1000 • Kinase buffer: 50 mM TRIS, 10 mM MgCl2, 1 mM DTT, 0.1% Tween 20, pH 7.8 PBS-T (=Wash buffer) (PBS-T)10 g/l PBS(Phosphate buffered saline) with 0.033% Tween 20 • 3% BSA/PBS-T: 3% BSA dissolved in PBS-T Method
This assay is performed in 96-well format for IC50 determination with 5 samples (each with 8 concentrations by twofold testing), 100 μl incubation volume and the following plate layout:
S samples, with ATP, 1% DMSO, final conc.: a=100 μM, b=20 μM, c=4 μM, d=0.8 μM, e=0.16 μM, f=0.032 μM, g=0.0064 μM, h=0.00128 μM Step/Action • (1) Sample preparation: add 24 μl per well samples (descending sequence) diluted in kinase buffer to assay plate (final conc. for DMSO 1%). • 2. Add directly 16 μl Aurora-A-his-4 diluted in kinase buffer to assay plate. • 3. Add directly 40 μl per well PKB-GSK2/ATP mixture to assay plate, (final conc.: Aurora A=250 ng/ml, GSK2=200 nM, ATP=4 μM). Negative control: without ATP. • 4. Incubate assay plate for exactly 90 min at room temperature. • 5. Stop reaction by adding 20 μl EDTA in all wells. • 6. Wash assay plate 3× with 200 μl washing buffer per well. • 7. Add 100 μl MAK<P-GSK>M27E5-IgG (1:10000) and PAK<M-Ig>S-IgG-POD (1:6000) dissolved in 3% BSA/PBS-T to assay plate per well. • 8. Incubate assay plate for 60 min at room temperature. • 9. Wash assay plate 3× with 200 μl washing buffer per well • 10. Add 100 μl ABTS solution to assay plate per well, incubate for approx. 4 min at RT on MTP shaker. • 11. Measure absorption at 405/492 nm. • 12. Calculate % inhibition as: (1−(Esample−ENC)/(EPC−ENC))×100 1)
13. Calculate IC50 using a non-linear curve fit (XLfit software (ID Business Solution Ltd., Guilford, Surrey, UK))

IC50, 1 to 100 nM:
CC1(C)C(=O)N(CC(=O)N2CCOCC2)c2cc3[nH]c(-c4n[nH]c5ccccc45)nc3cc21 [Example 40, 2-(1H-Indazol-3-yl)-7,7-dimethyl-5-(2-morpholin-4-yl-2-oxo-ethyl)-5,7-dihydro-3H-imidazo[4,5-f]indol-6-one]
CC1(C)C(=O)N(CC(=O)NCc2ccccc2)c2cc3[nH]c(-c4n[nH]c5ccccc45)nc3cc21 [Example 39, N-Benzyl-2-[2-(1H-indazol-3-yl)-7,7-dimethyl-6-oxo-6,7-dihydro-3H-imidazo[4,5-f]indol-5-yl]-acetamide]
CN(C)CCCN1C(=O)C(C)(C)c2cc3nc(-c4n[nH]c5ccccc45)[nH]c3cc21 [Example 21, 5-(3-Dimethylamino-propyl)-2-(1H-indazol-3-yl)-7,7-dimethyl-5,7-dihydro-3H-imidazo[4,5-f]indol-6-one]
C=CCN1C(=O)C(C)(C)c2cc3nc(-c4n[nH]c5ccccc45)[nH]c3cc21 [Example 2, 5-Allyl-2-(1H-indazol-3-yl)-7,7-dimethyl-5,7-dihydro-3H-imidazo[4,5-f]indol-6-one]
CC1(C)C(=O)N(CCO)c2cc3[nH]c(-c4n[nH]c5ccccc45)nc3cc21 [Example 34, 5-(2-Hydroxy-ethyl)-2-(1H-indazol-3-yl)-7,7-dimethyl-5,7-dihydro-3H-imidazo[4,5-f]indol-6-one]
